# Results filed as inconclusive are left out. Active and inactive are the calls of the source. The rule behind the calls is not given here.
# System: M. tuberculosis H37Rv growth inhibition
# Assay: Confirmatory growth inhibition assay against Mycobacterium tuberculosis H37Rv, potency (AID 1949);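 note: bacteria grown 7 days with compound before Alamar blue readout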
row,Structure (SMILES),IC50
1,CCCC(=O)N1CCN(c2ccc(NC(=O)c3cc4ccccc4o3)cc2Cl)CC1,33.7 µg/mL
2,C/C(=N/N=C1\NC(=O)C(Cc2cccc(C(F)(F)F)c2)S1)c1ccc(C)cc1 (stereo unspecified),4.95 µg/mL
3,Cc1ccc(NS(=O)(=O)c2ccc(NC(=S)NC(=O)c3ccc(F)cc3)cc2)c(C)c1,8.09 µg/mL
4,O=C(Nc1ccc(Oc2ccccc2)cc1)Nc1cccc([N+](=O)[O-])c1,1.09 µg/mL
5,COc1ccccc1OCCCCN1CCN(C(c2ccccc2)c2ccccc2)CC1,8.02 µg/mL
6,COC(=O)CSc1nnc(NC(=O)c2ccc(C(C)(C)C)cc2)s1,< 0.1 µg/mL
7,O=[N+]([O-])/C=C/c1c[nH]c2ccc(Br)cc12,8.61 µg/mL
8,COC(=O)c1c(C)cc(=O)n2c1[nH]c1ccccc12,3.52 µg/mL
9,O=c1oc(-c2ccccc2F)nc2sc3c(c12)CCCC3,> 50 µg/mL (inactive)
10,CC(C)(C)c1ccc(OCC(=O)Nc2ccc(F)c(Cl)c2)cc1,13.7 µg/mL
11,Cc1ccc(-c2nc(Nc3ccc(O)cc3)c3ccccc3n2)cc1,2.14 µg/mL
12,COc1cc(NC(=O)c2cc3ccccc3o2)ccc1NC(=O)c1ccccc1Cl,2.31 µg/mL
13,O=C(COc1ccc(Cl)cc1)Nc1ccc(N2CCN(C(=O)c3ccco3)CC2)c(Cl)c1,1.67 µg/mL
14,CCn1c(/C=C/c2ccc(F)cc2)nc2ccccc21,8.17 µg/mL
15,CCC1CCCCN1C(=S)NC(=O)c1ccc(F)cc1 (stereo unspecified),0.73 µg/mL
16,C=CCN1C(=O)C(O)(CC(=O)c2ccc(C)cc2C)c2ccccc21 (stereo unspecified),14.6 µg/mL
17,COc1ccc(NC(=O)CC23CC4CC(CC(C4)C2)C3)cc1[N+](=O)[O-],3.05 µg/mL
18,COc1cc(CNCCO)cc(Cl)c1OCc1ccc(Cl)cc1Cl,5.72 µg/mL
19,CCOC(=O)COc1ccc2c(c1)c(C(C)=O)c(C)n2Cc1ccccc1,24.9 µg/mL
20,Cc1ccc(-c2nnc(N3CCN(C(=O)c4ccc(Cl)cc4)CC3)c3ccccc23)cc1,3.65 µg/mL
21,CCc1nc2ccccc2n1CCCOc1ccccc1,0.5 µg/mL
22,O=C(CSc1nnc(-c2ccccc2Cl)o1)Nc1ccccn1,> 50 µg/mL (inactive)
23,CC(C)CN1C(=O)c2cccc3c([N+](=O)[O-])ccc(c23)C1=O,> 50 µg/mL (inactive)
24,CCCCc1ccc(NC(=O)COc2ccc(OCC)cc2)cc1,4.9 µg/mL

row,Structure (SMILES),IC50
1,CC(C)OC(=O)COc1ccc(C(=O)NCc2ccccc2)cc1,0.91 µg/mL
2,Cc1cccc(C(=O)NC(=S)N2CCC(C)CC2)c1,2.97 µg/mL
3,CC(C)c1ccc(NCCC(=O)c2cccs2)cc1,6.34 µg/mL
4,Cc1ccccc1NC(=O)c1c(NC(=O)CN2CCN(C)CC2)sc2c1CCC(C(C)(C)C)C2 (stereo unspecified),40.2 µg/mL
5,CC(C)(C)c1ccc(-c2nc(-c3ccncc3)no2)cc1,> 50 µg/mL (inactive)
6,CCn1cc(C(=O)O)c(=O)c2cc(F)c(N3CCN(C(=S)NC)CC3)cc21,11.8 µg/mL
7,c1ccc(CCNc2nc3ccccc3[nH]2)cc1,2.94 µg/mL
8,CN1CCN(c2ccc(NC(=O)c3cccc(OCc4ccccc4)c3)cc2)CC1,21.4 µg/mL
9,O=c1cc(-c2ccccc2)[nH]n1-c1ccc([N+](=O)[O-])cc1,10.8 µg/mL
10,O=C(CN1CCN(CCN2C(=O)c3cccc4cccc(c34)C2=O)CC1)c1ccc(Cl)cc1,6.6 µg/mL
11,N#CCCN(Cc1ccccc1)C(=S)NC(=O)c1ccccc1,2.51 µg/mL
12,COC(=O)C1=C(C)N(c2cc(Cl)cc(Cl)c2)C(=O)C1,6.04 µg/mL
13,Cc1ccc2cccc(OCC(=O)c3ccc(C)c(C)c3)c2n1,11.3 µg/mL
14,O=[N+]([O-])c1cccc(NC(=S)Nc2ccc(Cl)c(Cl)c2)c1,0.3 µg/mL
15,O=C(CSc1nnc(-c2cccnc2)o1)c1ccc(Oc2ccccc2)cc1,> 50 µg/mL (inactive)
16,COC(=O)Cc1c(C)c2ccc(OCC(=O)Nc3cc(C)cc(C)c3)cc2oc1=O,0.2 µg/mL
17,CCOC(=O)CSc1nc(C#N)c(SCC(=O)OCC)s1,2.29 µg/mL
18,Cc1ccc(C(C)C)cc1OCCCCn1ccnc1,1.88 µg/mL
19,NC(N)=Nc1nc(-c2ccccc2)c2cc(F)ccc2n1,7.61 µg/mL
20,COc1ccccc1-c1coc2cc(OCC(=O)OCc3ccccc3)ccc2c1=O,0.35 µg/mL
21,CCc1ccc(OCC(=O)Nc2cccc(F)c2)cc1,1.74 µg/mL
22,CCN1C(=O)c2cccc3c([N+](=O)[O-])ccc(c23)C1=O,> 50 µg/mL (inactive)
23,COc1ccc(CCNc2nc(N3CCCC3)nc(N3CCCC3)n2)cc1OC,5.35 µg/mL
24,Cc1c(C(=O)NC(=S)Nc2ccc(Oc3ccc(Cl)cc3)cc2)cccc1[N+](=O)[O-],1.49 µg/mL

row,Structure (SMILES),IC50
1,COC(=O)c1ccc(CSc2nnc(-c3ccncc3)o2)o1,> 50 µg/mL (inactive)
2,Clc1ccc(OCCCCn2ccnc2)c(Br)c1,1.51 µg/mL
3,CC(=O)Oc1ccccc1C(=O)OCc1ccc2ccccc2c1,11.7 µg/mL
4,CC(C)C(=O)N1CCN(c2ccc(NC(=O)c3ccc([N+](=O)[O-])o3)cc2)CC1,0.21 µg/mL
5,Cc1ccc(-c2[nH]c(-c3ccc([N+](=O)[O-])cc3)nc2-c2ccccc2)cc1,7.13 µg/mL
6,O=C(Nc1ncnc2sc3c(c12)CCCC3)c1ccc(F)cc1,0.52 µg/mL
7,COc1cccc(OCC(=O)c2ccc(Br)cc2)c1,0.37 µg/mL
8,O=C(Oc1ccccc1)c1cccc(COC(=O)c2cnccn2)c1,28 µg/mL
9,c1ccc(CNc2nc(N3CCN(Cc4ccccc4)CC3)nc3ccccc23)cc1,1.5 µg/mL
10,O=C(Nc1ccc([N+](=O)[O-])cc1)N1CCN(c2cccc(C(F)(F)F)c2)CC1,1.56 µg/mL
11,CCCc1cc2c(-c3ccccc3)cc(=O)oc2cc1OCC(=O)OC,5.24 µg/mL
12,CCc1cc(I)ccc1NC(=O)c1ccc([N+](=O)[O-])o1,1.61 µg/mL
13,CCOC(=O)c1cnc2c(C)c(C)ccc2c1NCc1ccco1,3.91 µg/mL
14,CCc1ccc(C(=O)NC(=S)Nc2ccc(C(=O)OC)cc2)cc1,3.98 µg/mL
15,O=C(CC(O)(C(F)(F)F)C(F)(F)F)Nc1ccc(Oc2ccccc2)cc1,7.49 µg/mL
16,CCC(C)NCCOc1ccc(C(C)(C)c2ccccc2)cc1 (stereo unspecified),0.91 µg/mL
17,COc1cc(Br)cc2cc(C(=O)Nc3cc(C(F)(F)F)ccc3Cl)c(=O)oc12,> 50 µg/mL (inactive)
18,Cc1cccc(OCC(O)CN2CCN(C(c3ccccc3)c3ccccc3)CC2)c1C (stereo unspecified),2.94 µg/mL
19,COc1cc(Br)cc2cc(C(=O)Nc3ccccc3C(F)(F)F)c(=O)oc12,> 50 µg/mL (inactive)
20,Cc1cc(Sc2ncnc(N)c2[N+](=O)[O-])ncn1,1.7 µg/mL
21,Cc1cccc(C(C)(C)C)c1OCCOCCn1ccnc1,3.97 µg/mL
22,N#Cc1cc2c(cc1C#N)OC(c1ccccc1)=NN2,16.4 µg/mL
23,CC(C)OC(=O)CSc1nnc(-c2ccc(N(C)C)cc2)o1,< 0.1 µg/mL
24,O=C(CSc1ccc([N+](=O)[O-])cn1)Nc1ccc2c(c1)OCO2,7.47 µg/mL

row,Structure (SMILES),IC50
1,Cc1cc(OCCn2ccnc2)ccc1Cl,2.77 µg/mL
2,COc1cccc(C2=CC(c3c(F)cccc3Cl)n3nnnc3N2)c1 (stereo unspecified),7.55 µg/mL
3,Cc1ccc2nc(-c3ccc(N/C(N)=N\c4nc(C)cc(C)n4)cc3)sc2c1,25.7 µg/mL
4,O=C(NC(=S)N1CCc2ccccc21)c1ccco1,5.64 µg/mL
5,CCN(CC)c1ccc(NC(=S)NCC(C)C)cc1,5.43 µg/mL
6,CCOC(=O)COc1ccc(S(=O)(=O)Nc2ccc(C)c(C)c2)cc1,1.03 µg/mL
7,Cc1c(Cl)ccc2c(=O)c(C(=O)O)c[nH]c12,29.6 µg/mL
8,CCOC(=O)COc1ccc(S(=O)(=O)Nc2cc(C)cc(C)c2)cc1,4.03 µg/mL
9,O=C(Nc1ccc(Br)c(Cl)c1)c1ccc(F)cc1,15.7 µg/mL
10,Cc1ccc(C2=CC(c3cccc([N+](=O)[O-])c3)n3nnnc3N2)cc1C (stereo unspecified),12.2 µg/mL
11,c1ccc(CCc2ccccc2-c2nc(-c3ccncc3)no2)cc1,8.77 µg/mL
12,Cc1cccnc1NC(=S)Nc1ccc(Cl)c(Cl)c1,8.34 µg/mL
13,CCOc1ccc(Nc2nc(NCc3ccco3)c3ccccc3n2)cc1,1.36 µg/mL
14,CC(C)OC(=O)C(C)n1cnc2scc(-c3ccc(Br)cc3)c2c1=O (stereo unspecified),8.3 µg/mL
15,Cc1ccc(NCCC(=O)c2ccc([N+](=O)[O-])cc2)cc1C,1.06 µg/mL
16,c1ccc2c(N3CCCCC3)nc(N3CCCC3)nc2c1,40.4 µg/mL
17,COC(=O)c1ccc(NC(=O)CSc2ccc(F)cc2)cc1,4.02 µg/mL
18,CCC(C)NCCCOc1ccc(Cl)c2ccccc12 (stereo unspecified),2.06 µg/mL
19,O=C(CCNc1cccc(F)c1)c1ccccc1,8.2 µg/mL
20,CC(C)OC(=O)c1c2c(n3ccccc13)C(=O)c1ccccc1C2=O,11.4 µg/mL
21,Cc1ccc(OCC(O)CN2CCN(CC(O)COc3ccc(C)cc3C)CC2)c(C)c1 (stereo unspecified),3.27 µg/mL
22,Cc1ccc(-c2nnc3sc(Cc4ccccc4)nn23)cc1,< 0.1 µg/mL
23,Cc1cccc(-n2c(N)cc(=O)nc2SCC(=O)Nc2nc(-c3ccccc3)cs2)c1,3.08 µg/mL
24,Clc1cc(Br)ccc1OCCCn1ccnc1,15 µg/mL

row,Structure (SMILES),IC50
1,COCCNc1nc(-c2ccc(Cl)cc2)nc2ccccc12,> 50 µg/mL (inactive)
2,Cc1ccc2c(C)nc(Nc3nc(CSc4nc5ccccc5s4)cc(=O)[nH]3)nc2c1,0.38 µg/mL
3,Cc1cc(OCC(O)CN2CCN(c3ccc(F)cc3)CC2)ccc1C(C)C (stereo unspecified),11.7 µg/mL
4,O=C(CCC(=O)OCc1cccc(C(=O)Oc2ccccc2)c1)Nc1cccc2ccccc12,12.6 µg/mL
5,COc1ccc(-c2cc(C(F)F)n3ncc(C(=O)N4CCN(c5ccccc5)CC4)c3n2)cc1,> 50 µg/mL (inactive)
6,COc1ccc(OC)c(NC(=O)c2cc3cc(Br)ccc3oc2=O)c1,0.2 µg/mL
7,CCOc1ccc(S(=O)(=O)Nc2ccc(C(F)(F)F)cc2)cc1,6.25 µg/mL
8,Cc1cc(NC(=O)c2ccc([N+](=O)[O-])o2)c(C)cc1I,0.46 µg/mL
9,O=C(Nc1ccc(Cl)c(Cl)c1)Nc1ccc(Br)cc1F,0.37 µg/mL
10,CSc1ncnc2c1ncn2CC(=O)Nc1ccc(C)c(C)c1,< 0.1 µg/mL
11,O=[N+]([O-])c1ccc(Sc2n[nH]c(-c3ccccc3)n2)nc1,10 µg/mL
12,Cc1ccc(Cn2cnc3cc(C)c(C)cc32)cc1,8.24 µg/mL
13,Clc1ccc(SCCCn2ccnc2)cc1,2.36 µg/mL
14,O=C1NC(=O)N(c2ccc(Cl)cc2)C(=O)/C1=C\c1ccc([N+](=O)[O-])s1,5.58 µg/mL
15,Cc1ccc(CSCC(=O)Nc2ccc(Cl)c(Cl)c2)cc1,3.06 µg/mL
16,Cc1sc2ncnc(N3CCN(CCOc4ccc(Cl)cc4)CC3)c2c1C,> 50 µg/mL (inactive)
17,COc1ccc(OC(C)C(=O)Nc2ccc(I)cc2)cc1 (stereo unspecified),0.32 µg/mL
18,O=C(Nc1ccc(N2CCN(Cc3ccccc3)CC2)cc1)c1cccc(Cl)c1Cl,4.51 µg/mL
19,CCCCC(=O)NC(=S)Nc1ccc(N2CCN(C(=O)c3ccco3)CC2)c(Cl)c1,0.67 µg/mL
20,COc1cccc(N2CCN(Cc3nc(N)nc(Nc4ccc(C)c(Cl)c4)n3)CC2)c1,1.45 µg/mL

# Source: PubChem BioAssay AID1949 (Southern Research Institute, 2009)
